We go through 18 molecules from US20250282799A1, “SUBSTITUTED PYRIDO[4,3-d]PYRIMIDINES AS KRAS MODULATORS” (Alterome Therapeutics, Inc., priority 2023, published 2025).

The test relates to KRAS G12V dependent lung adenocarcinoma cell line, NCI-H441. In words: Cellular pERK (Thr202/Tyr204) FRET/HTRF assay. The class given is cell-based. The following applies: Homo sapiens, NCI-H441, pERK HTRF, NCI-H441 cells (KRAS G12V). The method in brief: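 NCI-H441 cells (KRAS G12V) were seeded and grown overnight at 37 °C, 5% CO2, then treated with compound in DMSO for 1 hr. Lysates were probed with a Eu3+-cryptate/d2 antibody sandwich against pERK1/2 Thr202/Tyr204 and read by HTRF at 665 nm; IC50 from curve fitting.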
Molecule `[2H]C([2H])(Oc1nc(N2CCC[C@@H]3[C@@H](F)[C@@H]32)c2cnc(-c3cc(N)cc4cc(F)c(F)c(C#C)c34)c(F)c2n1)[C@@]12CCCN1C[C@H](F)C2` [Example 53, 5-Ethynyl-6,7-difluoro-4-(8-fluoro-4-((1R,6S,7R)-7-fluoro-2-azabicyclo[4.1.0]heptan-2-yl)-2-(((2R,7aS)-2-fluorotetrahydro-1H-pyrrolizin-7a(5H)-yl)methoxy-d2)pyrido[4,3-d]pyrimidin-7-yl)naphthalen-2-amine] showed an IC50 of 0.05 to 0.5 µM.

`[2H]C([2H])(Oc1nc(N2CCC[C@H]3[C@H](F)[C@H]32)c2cnc(-c3cc(N)cc4cc(F)c(F)c(C#C)c34)c(F)c2n1)[C@@]12CCCN1C[C@H](F)C2` [Example 54, 5-Ethynyl-6,7-difluoro-4-(8-fluoro-4-((1S,6R,7S)-7-fluoro-2-azabicyclo[4.1.0]heptan-2-yl)-2-(((2R,7aS)-2-fluorotetrahydro-1H-pyrrolizin-7a(5H)-yl)methoxy-d2)pyrido[4,3-d]pyrimidin-7-yl)naphthalen-2-amine] registered a half-maximal inhibitory concentration (IC50) of less than 0.05 µM.

In the case of `[2H]C([2H])(Oc1nc(N2CCCCC[C@@H]3C[C@@H]32)c2cnc(-c3cc(N)cc4cc(F)c(F)c(C#C)c34)c(F)c2n1)[C@@]12CCCN1C[C@H](F)C2` [Example 55, 4-(4-((1S,8R)-2-azabicyclo[6.1.0]nonan-2-yl)-8-fluoro-2-(((2R,7aS)-2-fluorotetrahydro-1H-pyrrolizin-7a(5H)-yl)methoxy-d2)pyrido[4,3-d]pyrimidin-7-yl)-5-ethynyl-6,7-difluoronaphthalen-2-amine], the IC50 lay in the range of 0.5 to 10 µM.

For the molecule `[2H]C([2H])(Oc1nc(N2CCCCC[C@H]3C[C@H]32)c2cnc(-c3cc(N)cc4cc(F)c(F)c(C#C)c34)c(F)c2n1)[C@@]12CCCN1C[C@H](F)C2` [Example 56, 4-(4-((1R,8S)-2-azabicyclo[6.1.0]nonan-2-yl)-8-fluoro-2-(((2R,7aS)-2-fluorotetrahydro-1H-pyrrolizin-7a(5H)-yl)methoxy-d2)pyrido[4,3-d]pyrimidin-7-yl)-5-ethynyl-6,7-difluoronaphthalen-2-amine], the concentration for half-maximal inhibition (IC50) was less than 0.05 µM.

`C#Cc1c(F)ccc2cc(N)cc(-c3ncc4c(N5CCCCC6C5C6(F)F)nc(OC[C@@]56CCCN5C[C@H](F)C6)nc4c3F)c12` (stereo partly drawn) [Example 57, 4-(4-(8,8-Difluoro-2-azabicyclo[5.1.0]octan-2-yl)-8-fluoro-2-(((2R,7aS)-2-fluorotetrahydro-1H-pyrrolizin-7a(5H)-yl)methoxy)pyrido[4,3-d]pyrimidin-7-yl)-5-ethynyl-6-fluoronaphthalen-2-amine] gave a half-inhibitory concentration (IC50) of 0.05 to 0.5 µM.

In turn, `[2H]C([2H])(Oc1nc(N2CCCCC[C@@H]3[C@@H](F)[C@@H]32)c2cnc(-c3cc(N)cc4cc(F)c(F)c(C#C)c34)c(F)c2n1)[C@@]12CCCN1C[C@H](F)C2` [Example 59, 5-Ethynyl-6,7-difluoro-4-(8-fluoro-4-((1R,8S,9R)-9-fluoro-2-azabicyclo[6.1.0]nonan-2-yl)-2-(((2R,7aS)-2-fluorotetrahydro-1H-pyrrolizin-7a(5H)-yl)methoxy-d2)pyrido[4,3-d]pyrimidin-7-yl)naphthalen-2-amine] had an IC50 of 0.5 to 10 µM.

`[2H]C([2H])(Oc1nc(N2CCCCC[C@H]3[C@H](F)[C@H]32)c2cnc(-c3cc(N)cc4cc(F)c(F)c(C#C)c34)c(F)c2n1)[C@@]12CCCN1C[C@H](F)C2` [Example 60, 5-Ethynyl-6,7-difluoro-4-(8-fluoro-4-((1S,8R,9S)-9-fluoro-2-azabicyclo[6.1.0]nonan-2-yl)-2-(((2R,7aS)-2-fluorotetrahydro-1H-pyrrolizin-7a(5H)-yl)methoxy-d2)pyrido[4,3-d]pyrimidin-7-yl)naphthalen-2-amine] gave an IC50 of less than 0.05 µM.

`[2H]C([2H])(Oc1nc(N2CCOC[C@@H]3C[C@@H]32)c2cnc(-c3cc(N)cc4cc(F)c(F)c(C#C)c34)c(F)c2n1)[C@@]12CCCN1C[C@H](F)C2` [Example 61, 4-(4-((1S,7R)-5-Oxa-2-azabicyclo[5.1.0]octan-2-yl)-8-fluoro-2-(((2R,7aS)-2-fluorotetrahydro-1H-pyrrolizin-7a(5H)-yl)methoxy-d2)pyrido[4,3-d]pyrimidin-7-yl)-5-ethynyl-6,7-difluoronaphthalen-2-amine] showed an IC50 of 0.5 to 10 µM.

`[2H]C([2H])(Oc1nc(N2CCC[C@@H]3[C@H](F)[C@@H]32)c2cnc(-c3cc(N)cc4cc(F)c(F)c(C#C)c34)c(F)c2n1)[C@@]12CCCN1C[C@H](F)C2` [Example 63, 5-Ethynyl-6,7-difluoro-4-(8-fluoro-4-((1R,6S,7S)-7-fluoro-2-azabicyclo[4.1.0]heptan-2-yl)-2-(((2R,7aS)-2-fluorotetrahydro-1H-pyrrolizin-7a(5H)-yl)methoxy-d2)pyrido[4,3-d]pyrimidin-7-yl)naphthalen-2-amine] came in with an IC50 of 0.5 to 10 µM.

The molecule `[2H]C([2H])(Oc1nc(N2CCC[C@H]3[C@@H](F)[C@H]32)c2cnc(-c3cc(N)cc4cc(F)c(F)c(C#C)c34)c(F)c2n1)[C@@]12CCCN1C[C@H](F)C2` [Example 64, 5-Ethynyl-6,7-difluoro-4-(8-fluoro-4-((1S,6R,7R)-7-fluoro-2-azabicyclo[4.1.0]heptan-2-yl)-2-(((2R,7aS)-2-fluorotetrahydro-1H-pyrrolizin-7a(5H)-yl)methoxy-d2)pyrido[4,3-d]pyrimidin-7-yl)naphthalen-2-amine] showed an IC50 of 0.5 to 10 µM.

For `[2H]C([2H])([2H])Oc1c(F)c(F)cc2cc(N)cc(-c3ncc4c(N5CCCC[C@H]6[C@H](F)[C@H]65)nc(OC([2H])([2H])[C@@]56CCCN5C[C@H](F)C6)nc4c3F)c12` [Example 65, 6,7-Difluoro-4-(8-fluoro-4-((1S,7R,8S)-8-fluoro-2-azabicyclo[5.1.0]octan-2-yl)-2-(((2R,7aS)-2-fluorotetrahydro-1H-pyrrolizin-7a(5H)-yl)methoxy-d2)pyrido[4,3-d]pyrimidin-7-yl)-5-(methoxy-d3)naphthalen-2-amine], the 50% inhibitory concentration (IC50) is less than 0.05 µM.

As to `[2H]C([2H])(Oc1nc(N2CCCC[C@H]3[C@H](F)[C@H]32)c2cnc(-c3cc(N)cc4cc(F)c(F)c(OCF)c34)c(F)c2n1)[C@@]12CCCN1C[C@H](F)C2` [Example 66, 6,7-Difluoro-4-(8-fluoro-4-((1S,7R,8S)-8-fluoro-2-azabicyclo[5.1.0]octan-2-yl)-2-(((2R,7aS)-2-fluorotetrahydro-1H-pyrrolizin-7a(5H)-yl)methoxy-d2)pyrido[4,3-d]pyrimidin-7-yl)-5-(fluoromethoxy) naphthalen-2-amine], the IC50 was less than 0.05 µM.

Consider `[2H]C([2H])(Oc1nc(N2CCCC[C@H]3[C@H](F)[C@H]32)c2cnc(-c3cc(N)cc4cc(F)c(F)c(OC(F)F)c34)c(F)c2n1)[C@@]12CCCN1C[C@H](F)C2` [Example 67, 5-(Difluoromethoxy)-6,7-difluoro-4-(8-fluoro-4-((1S,7R,8S)-8-fluoro-2-azabicyclo[5.1.0]octan-2-yl)-2-(((2R,7aS)-2-fluorotetrahydro-1H-pyrrolizin-7a(5H)-yl)methoxy-d2)pyrido[4,3-d]pyrimidin-7-yl)naphthalen-2-amine], for which the IC50 was less than 0.05 µM.

Regarding `[2H]C([2H])([2H])Oc1c(F)ccc2cccc(-c3ncc4c(N5CCCC[C@H]6[C@H](F)[C@H]65)nc(OC([2H])([2H])[C@@]56CCCN5C[C@H](F)C6)nc4c3F)c12` [Example 68, 8-Fluoro-7-(7-fluoro-8-(methoxy-d3)naphthalen-1-yl)-4-((1S,7R,8S)-8-fluoro-2-azabicyclo[5.1.0]octan-2-yl)-2-(((2R,7aS)-2-fluorotetrahydro-1H-pyrrolizin-7a(5H)-yl)methoxy-d2)pyrido[4,3-d]pyrimidine], the IC50 was less than 0.05 µM.

`[2H]C([2H])([2H])Oc1c(F)c(F)c(F)c2cc(N)cc(-c3ncc4c(N5CCCC[C@H]6[C@H](F)[C@H]65)nc(OC([2H])([2H])[C@@]56CCCN5C[C@H](F)C6)nc4c3F)c12` [Example 69, 6,7,8-Trifluoro-4-(8-fluoro-4-((1S,7R,8S)-8-fluoro-2-azabicyclo[5.1.0]octan-2-yl)-2-(((2R,7aS)-2-fluorotetrahydro-1H-pyrrolizin-7a(5H)-yl)methoxy-d2)pyrido[4,3-d]pyrimidin-7-yl)-5-(methoxy-d3)naphthalen-2-amine] returned a half-inhibitory concentration (IC50) of less than 0.05 µM.

`[2H]C([2H])(Oc1nc(N2CCCC[C@H]3[C@H](F)[C@H]32)c2cnc(-c3cc(N)cc4c(F)c(F)c(F)c(C#C)c34)c(F)c2n1)[C@@]12CCCN1C[C@H](F)C2` [Example 70, 5-Ethynyl-6,7,8-trifluoro-4-(8-fluoro-4-((1S,7R,8S)-8-fluoro-2-azabicyclo[5.1.0]octan-2-yl)-2-(((2R,7aS)-2-fluorotetrahydro-1H-pyrrolizin-7a(5H)-yl)methoxy-d2)pyrido[4,3-d]pyrimidin-7-yl)naphthalen-2-amine]: the 50% inhibitory concentration (IC50) is less than 0.05 µM.

`[2H]C([2H])(F)Oc1c(F)c(F)cc2cc(N)cc(-c3ncc4c(N5CCCC[C@H]6[C@H](F)[C@H]65)nc(OC([2H])([2H])[C@@]56CCCN5C[C@H](F)C6)nc4c3F)c12` [Example 71, 6,7-Difluoro-4-(8-fluoro-4-((1S,7R,8S)-8-fluoro-2-azabicyclo[5.1.0]octan-2-yl)-2-(((2R,7aS)-2-fluorotetrahydro-1H-pyrrolizin-7a(5H)-yl)methoxy-d2)pyrido[4,3-d]pyrimidin-7-yl)-5-(fluoromethoxy-d2)naphthalen-2-amine]: the IC50 is less than 0.05 µM.

As for `[2H]C([2H])(F)Oc1c(F)ccc2cccc(-c3ncc4c(N5CCCC[C@H]6[C@H](F)[C@H]65)nc(OC([2H])([2H])[C@@]56CCCN5C[C@H](F)C6)nc4c3F)c12` [Example 72, 8-Fluoro-7-(7-fluoro-8-(fluoromethoxy-d2)naphthalen-1-yl)-4-((1S,7R,8S)-8-fluoro-2-azabicyclo[5.1.0]octan-2-yl)-2-(((2R,7aS)-2-fluorotetrahydro-1H-pyrrolizin-7a(5H)-yl)methoxy-d2)pyrido[4,3-d]pyrimidine], the half-inhibitory concentration (IC50) is less than 0.05 µM.

Broadly, the IC50 is the point on the concentration scale where inhibition reaches its midpoint.
